US12435038B2 (KUNMING SINOWAY NATURAL PHARMACEUTICALS CO., LTD., priority 2019, dated 2025)

What was measured:
[1] = cited from earlier work
[2] = Accelerated test of the API (sealed in aluminum-plastic composite film bags, 40° C., 75% RH); format: physicochemical; conditions: mesylate monohydrate
From the text: (§1) Determination of other parameters of API or tablets of amlodipine mesylate monohydrate regarding quality such as water content, angle of repose, carr index, particle size, bulk density, and the like, is conduct with conventional methods well known to those skilled in the art.

[3] = Powder properties of amlodipine mesylate monohydrate crystals (particle size distribution, carr index, angle of repose, bulk density); format: physicochemical; conditions: API crystals
From the text: The Carr index and angle of repose are indications of the flowability of a powdery material. To a certain extent, the Carr index is an indication of the compressibility of a powdery material. Carr index=(tap density-bulk density)/tap density*100%.
The angle of repose (α) refers to the maximum angle formed between the free inclined plane and the horizontal plane in a powder piled layer. The smaller the angle of repose (α) is, the better the flowability is. It is generally believed that the powder can flow freely if the a is less than 30°, and the flowability of the power is acceptable if the a is between 30° and 40°, while the power may have poor flowability if the a is greater than 40°.
The particle size of crystals can be measured by a Malvern Lazer Particle Analyzer which is a dry method. The particle size is related to the fluidity of a powder, and generally the larger the particle size is and the more concentrated the particle distribution is, the better the fluidity is. During the crystallization process, an average particle size (D50) of less than 15 μm may lead to difficulty in filtration and drying and easy to carry and absorb more impurities. Furthermore, the uniformity of particle size distribution can also have an impact on the properties of APIs.
as §1

Row | Molecule | Average particle size ([2]; 0 month) | Bulk density ([2]; 0 month) | Carr index ([2]; 0 month) | Character ([2]; 0 month) | Content ([2]; 0 month) | Related substance ([2]; 0 month) | Water content ([2]; 0 month) | Average particle size ([2]; 3 months) | Bulk density ([2]; 3 months) | Carr index ([2]; 3 months) | Content ([2]; 3 months) | Related substance ([2]; 3 months) | Water content ([2]; 3 months) | Average particle size ([2]; 6 months) | Bulk density ([2]; 6 months) | Carr index ([2]; 6 months) | Character ([2]; 6 months) | particle size distribution D10 [3] | particle size distribution D50 [3] | particle size distribution D90 [3] | also measured
1 | CCOC(=O)C1=C(COCCN)NC(C)=C(C(=O)OC)C1c1ccccc1Cl (stereo not shown) [Amlodipine free base, Amlodipine] |  |  |  |  |  |  |  |  |  |  |  |  |  |  |  |  |  |  |  |  | water solubility [1]: poor water solubility
2 | amlodipine mesylate monohydrate |  |  |  |  |  |  |  |  |  |  |  |  |  |  |  |  |  |  |  |  | water solubility [1]: easily soluble in water; solubility relative to that of amlodipine besylate ([1]; in water): more than 10 time
3 | amlodipine mesylate monohydrate [Comparative Example 1, reference compound] | 6.70 μm | 0.22 g/mL | 41% | White like | 99.89% | 0.12% | 3.49% | 5.96 μm | 0.25 g/mL | 42% | 99.81% | 0.18% | 3.48% | 6.93 μm | 0.26 g/mL | 43% | Yellow | 1.73 μm | 6.70 μm | 16.4 μm | Content ([2]; 6 months): 99.71%; Related substance ([2]; 6 months): 0.23%; Water content ([2]; 6 months): 3.51%; Bulk density [3]: 0.22 g/mL; Carr index [3]: 41%; angle of repose [3]: 46 °; fluidity (words, from carr index and angle of repose) [3]: poor fluidity
4 | amlodipine mesylate monohydrate [Comparative Example 2, reference compound] | 6.22 μm | 0.26 g/mL | 42% | White like | 99.82% | 0.11% | 3.57% | 5.89 μm | 0.27 g/mL | 41% | 99.71% | 0.18% | 3.52% | 6.74 μm | 0.25 g/mL | 44% | Yellow solid | 1.62 μm | 6.22 μm | 14.1 μm | Character ([2]; 3 months): Light yellow; Content ([2]; 6 months): 99.62%; Related substance ([2]; 6 months): 0.26%; Water content ([2]; 6 months): 3.53%; Bulk density [3]: 0.26 g/mL; Carr index [3]: 42%; angle of repose [3]: 45 °; fluidity (words, from carr index and angle of repose) [3]: poor fluidity
5 | amlodipine mesylate monohydrate [Example 1] | 70.2 μm | 0.32 g/mL | 23% | White solid | 99.92% | 0.07% | 3.51% | 70.6 μm | 0.31 g/mL | 23% | 99.78% | 0.07% | 3.49% | 69.5 μm | 0.33 g/mL | 24% | White solid | 33.9 μm | 70.2 μm | 121 μm | Character ([2]; 3 months): White solid; Content ([2]; 6 months): 99.71%; Related substance ([2]; 6 months): 0.08%; Water content ([2]; 6 months): 3.50%; Bulk density [3]: 0.32 g/mL; Carr index [3]: 23%; angle of repose [3]: 29 °; fluidity (words, from carr index and angle of repose) [3]: good fluidity
6 | amlodipine mesylate monohydrate [Example 2] | 72.1 μm | 0.33 g/mL | 23% | White solid | 99.95% | 0.06% | 3.51% | 71.8 μm | 0.32 g/mL | 24% | 99.81% | 0.07% | 3.52% | 72.4 μm | 0.32 g/mL | 24% | White solid | 34.8 μm | 72.1 μm | 126 μm | Character ([2]; 3 months): White solid; Content ([2]; 6 months): 99.73%; Related substance ([2]; 6 months): 0.08%; Water content ([2]; 6 months): 3.49%; Bulk density [3]: 0.33 g/mL; Carr index [3]: 23%; angle of repose [3]: 31 °; fluidity (words, from carr index and angle of repose) [3]: good fluidity
7 | amlodipine mesylate monohydrate [Example 3] | 70.1 μm | 0.30 g/mL | 24% | White solid | 99.93% | 0.07% | 3.50% | 69.5 μm | 0.31 g/mL | 23% | 99.82% | 0.08% | 3.48% | 71.4 μm | 0.32 g/mL | 25% | White solid | 32.9 μm | 70.1 μm | 124 μm | Character ([2]; 3 months): White solid; Content ([2]; 6 months): 99.71%; Related substance ([2]; 6 months): 0.10%; Water content ([2]; 6 months): 3.49%; Bulk density [3]: 0.30 g/mL; Carr index [3]: 24%; angle of repose [3]: 33 °; fluidity (words, from carr index and angle of repose) [3]: good fluidity
8 | amlodipine mesylate monohydrate [Experimental Example 1] |  |  |  |  |  |  |  |  |  |  |  |  |  |  |  |  |  | 43 μm | 92 μm | 151 μm | 
9 | amlodipine mesylate monohydrate [Experimental Example 2] |  |  |  |  |  |  |  |  |  |  |  |  |  |  |  |  |  | 32 μm | 68 μm | 117 μm | 
10 | amlodipine mesylate monohydrate [Experimental Example 3] |  |  |  |  |  |  |  |  |  |  |  |  |  |  |  |  |  | 34 μm | 69 μm | 120 μm | 
